We go through 24 compounds from patent publication US9216999B2, “Substituted pyrrolo[2,3-h][1,6]naphthyridines and compositions thereof as JAK inhibitors” (priority 2011, dated 2015).

One may read the IC50 as the midpoint of a concentration-inhibition curve. A high value points to a need for much substance.

Common to all, as to type: biochemical
Common to all, as to conditions: ATP 100 μM

The target in one assay is JAK2 (Homo sapiens (Human), UniProt O60674). The experiment in a line: Enzyme assay (Assay Example^a 1), JAK2.
For a further assay, the target named is JAK3 (Homo sapiens (Human), UniProt P52333). The assay can be described thus: Enzyme assay (Assay Example^a 1), JAK3.
JAK3, sequence (P52333 whole entry): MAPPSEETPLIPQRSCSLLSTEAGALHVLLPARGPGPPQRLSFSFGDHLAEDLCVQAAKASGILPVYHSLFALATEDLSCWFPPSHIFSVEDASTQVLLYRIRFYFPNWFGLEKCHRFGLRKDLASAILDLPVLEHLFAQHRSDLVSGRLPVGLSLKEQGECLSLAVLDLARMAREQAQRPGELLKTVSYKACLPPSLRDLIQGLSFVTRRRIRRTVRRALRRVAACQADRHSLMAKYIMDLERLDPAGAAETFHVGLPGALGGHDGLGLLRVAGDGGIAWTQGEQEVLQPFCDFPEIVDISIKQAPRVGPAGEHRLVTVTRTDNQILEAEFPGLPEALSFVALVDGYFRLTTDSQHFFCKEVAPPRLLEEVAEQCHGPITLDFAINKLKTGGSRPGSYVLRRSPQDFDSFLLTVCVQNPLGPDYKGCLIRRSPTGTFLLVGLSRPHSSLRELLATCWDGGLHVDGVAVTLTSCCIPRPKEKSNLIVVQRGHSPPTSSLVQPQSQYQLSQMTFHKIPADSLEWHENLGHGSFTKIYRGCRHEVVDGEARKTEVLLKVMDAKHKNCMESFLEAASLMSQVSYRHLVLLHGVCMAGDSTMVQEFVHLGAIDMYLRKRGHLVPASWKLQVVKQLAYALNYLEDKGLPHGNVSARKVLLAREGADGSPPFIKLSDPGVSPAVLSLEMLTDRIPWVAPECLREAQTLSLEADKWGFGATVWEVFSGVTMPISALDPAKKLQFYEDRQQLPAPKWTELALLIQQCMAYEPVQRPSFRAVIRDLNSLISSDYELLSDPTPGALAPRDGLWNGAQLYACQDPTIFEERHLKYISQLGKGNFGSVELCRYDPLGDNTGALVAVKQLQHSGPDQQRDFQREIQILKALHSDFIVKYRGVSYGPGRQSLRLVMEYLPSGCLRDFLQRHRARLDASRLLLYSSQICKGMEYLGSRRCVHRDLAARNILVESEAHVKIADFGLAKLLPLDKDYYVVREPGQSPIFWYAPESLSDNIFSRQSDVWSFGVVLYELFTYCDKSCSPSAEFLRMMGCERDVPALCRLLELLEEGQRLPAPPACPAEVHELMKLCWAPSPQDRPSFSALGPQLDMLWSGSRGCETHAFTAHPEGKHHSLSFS
The target in the next assay is JAK1 (Homo sapiens (Human), UniProt P23458). The experiment in a line: Enzyme assay (Assay Example^a 1), JAK1.
The target in another assay is Tyk2 (Homo sapiens (Human), UniProt P29597). The experiment in a line: Enzyme assay (Assay Example^a 1), Tyk2.
Tyk2, sequence (P29597 whole entry): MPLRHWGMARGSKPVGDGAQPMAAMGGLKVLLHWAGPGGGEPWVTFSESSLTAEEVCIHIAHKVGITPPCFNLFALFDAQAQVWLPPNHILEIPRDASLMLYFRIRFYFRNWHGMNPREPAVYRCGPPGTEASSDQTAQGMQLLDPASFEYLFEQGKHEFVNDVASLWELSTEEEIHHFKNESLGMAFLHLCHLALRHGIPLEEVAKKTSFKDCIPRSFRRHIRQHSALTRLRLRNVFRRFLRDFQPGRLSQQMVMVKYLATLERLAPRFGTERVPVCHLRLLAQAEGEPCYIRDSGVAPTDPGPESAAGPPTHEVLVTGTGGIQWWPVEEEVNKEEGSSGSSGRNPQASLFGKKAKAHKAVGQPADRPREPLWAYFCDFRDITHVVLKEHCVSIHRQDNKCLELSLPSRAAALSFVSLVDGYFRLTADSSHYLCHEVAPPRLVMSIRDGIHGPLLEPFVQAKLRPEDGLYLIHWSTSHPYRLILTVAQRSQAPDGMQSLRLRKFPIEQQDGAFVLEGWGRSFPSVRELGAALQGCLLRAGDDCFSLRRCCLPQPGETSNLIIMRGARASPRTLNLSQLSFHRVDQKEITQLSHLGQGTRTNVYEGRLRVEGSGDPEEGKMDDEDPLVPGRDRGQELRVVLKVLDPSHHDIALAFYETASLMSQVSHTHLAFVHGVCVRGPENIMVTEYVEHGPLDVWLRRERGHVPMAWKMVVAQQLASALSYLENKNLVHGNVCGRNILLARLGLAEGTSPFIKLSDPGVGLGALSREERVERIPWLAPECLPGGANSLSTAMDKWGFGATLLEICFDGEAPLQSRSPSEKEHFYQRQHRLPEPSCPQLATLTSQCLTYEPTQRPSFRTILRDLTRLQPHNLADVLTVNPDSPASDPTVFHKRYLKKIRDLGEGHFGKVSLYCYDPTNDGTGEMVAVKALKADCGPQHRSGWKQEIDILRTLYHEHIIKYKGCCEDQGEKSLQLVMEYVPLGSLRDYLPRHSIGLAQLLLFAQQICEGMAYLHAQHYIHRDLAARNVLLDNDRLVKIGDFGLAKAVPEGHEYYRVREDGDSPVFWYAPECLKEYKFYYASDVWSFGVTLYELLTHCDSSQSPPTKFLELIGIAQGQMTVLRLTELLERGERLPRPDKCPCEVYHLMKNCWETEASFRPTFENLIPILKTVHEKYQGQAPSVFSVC

Bounds are passed on as bounds.

Take `OC(CNC[C@H]1CC[C@H](c2nnn3cnc4[nH]ccc4c23)CC1)C(F)(F)F` (stereo partly drawn) [compound 343, 3-({[trans-4-(7H-pyrrolo[3,2-e][1,2,3]triazolo[1,5-c]pyrimidin-1-yl)cyclohexyl]methyl}amino)-1,1,1-trifluoropropan-2-ol]: the IC50 turned out to be 0.063 µM against JAK2, 0.33 µM against JAK3, 0.01 µM against JAK1 and 0.44 µM on Tyk2.
For `c1cc2c(ncn3nnc([C@H]4CC[C@H](CNC5CSC5)CC4)c23)[nH]1` [compound 344, N-{[trans-4-(7H-pyrrolo[3,2-e][1,2,3]triazolo[1,5-c]pyrimidin-1-yl)cyclohexyl]methyl}thietan-3-amine], in that order: 0.068 µM, 0.52 µM, 0.012 µM and 0.39 µM.
With `CCS(=O)(=O)N1CCN(C[C@H]2CC[C@H](c3nnn4cnc5[nH]ccc5c34)CC2)CC1` [compound 345, 1-(trans-4-{[4-(ethylsulfonyl)piperazin-1-yl]methyl}cyclohexyl)-7H-pyrrolo[3,2-e][1,2,3]triazolo[1,5-c]pyrimidine], the concentration for half-maximal inhibition (IC50) at JAK2 is 0.2 µM; on JAK3, over 1 µM; against JAK1, 0.025 µM; against Tyk2 it was over 1 µM.
In the case of `O=C(NCC(O)(c1ccccc1)C(F)(F)F)[C@H]1CC[C@H](c2nnn3cnc4[nH]ccc4c23)CC1` (stereo partly drawn) [compound 346, trans-4-(7H-Pyrrolo[3,2-e][1,2,3]triazolo[1,5-c]pyrimidin-1-yl)-N-(3,3,3-trifluoro-2-hydroxy-2-phenylpropyl)cyclohexanecarboxamide], the concentration for half-maximal inhibition (IC50) was 0.06 µM on JAK2, over 1 µM at JAK3, 0.0051 µM against JAK1 and over 1 µM against Tyk2.
With `NC(=O)[C@H]1CC[C@H](c2nnn3cnc4[nH]ccc4c23)CC1` [compound 348, trans-4-(7H-pyrrolo[3,2-e][1,2,3]triazolo[1,5-c]pyrimidin-1-yl)cyclohexanecarboxamide], the half-inhibitory concentration (IC50) against JAK2 stood at 0.051 µM; against JAK3, 0.75 µM; against JAK1, 0.0099 µM; at Tyk2, 0.29 µM.
The like results for `Cc1ccc(CNC(=O)[C@H]2CC[C@H](c3nnn4cnc5[nH]ccc5c34)CC2)o1` [compound 349, trans-N-[(5-methylfuran-2-yl)methyl]-4-(7H-pyrrolo[3,2-e][1,2,3]triazolo[1,5-c]pyrimidin-1-yl)cyclohexanecarboxamide] were, in that order, 0.048 µM, over 1 µM, 0.0059 µM and 0.25 µM.
For `N#CC(NC(=O)[C@H]1CC[C@H](c2nnn3cnc4[nH]ccc4c23)CC1)c1ccccc1` (stereo partly drawn) [compound 351, trans-N-[cyano(phenyl)methyl]-4-(7H-pyrrolo[3,2-e][1,2,3]triazolo[1,5-c]pyrimidin-1-yl)cyclohexanecarboxamide], in that order: 0.089 µM, over 1 µM, 0.012 µM and over 1 µM.
For `O=C(NCCc1ccc(Cl)cc1)[C@H]1CC[C@H](c2nnn3cnc4[nH]ccc4c23)CC1` [compound 352, trans-N-(4-chlorophenethyl)-4-(7H-pyrrolo[3,2-e][1,2,3]triazolo[1,5-c]pyrimidin-1-yl)cyclohexanecarboxamide], in that order: 0.029 µM, over 1 µM, 0.005 µM and over 1 µM.
Regarding `O=C(NC[C@@H](O)c1ccccc1)[C@H]1CC[C@H](c2nnn3cnc4[nH]ccc4c23)CC1` [compound 353, trans-N-[(S)-2-hydroxy-2-phenylethyl]-4-(7H-pyrrolo[3,2-e][1,2,3]triazolo[1,5-c]pyrimidin-1-yl)cyclohexanecarboxamide], the half-maximal inhibitory concentration (IC50) against JAK2 stood at 0.031 µM; on JAK3, 0.35 µM; at JAK1, 0.0029 µM; against Tyk2, 0.46 µM.
For `N#CCNC(=O)[C@H]1CC[C@H](c2nnn3cnc4[nH]ccc4c23)CC1` [compound 355, trans-N-(cyanomethyl)-4-(7H-pyrrolo[3,2-e][1,2,3]triazolo[1,5-c]pyrimidin-1-yl)cyclohexanecarboxamide], in that order: 0.033 µM, over 1 µM, 0.0042 µM and 0.15 µM.
Consider `N#CCCNC(=O)[C@H]1CC[C@H](c2nnn3cnc4[nH]ccc4c23)CC1` [compound 356, trans-N-(2-cyanoethyl)-4-(7H-pyrrolo[3,2-e][1,2,3]triazolo[1,5-c]pyrimidin-1-yl)cyclohexanecarboxamide], for which the IC50 at JAK2 was 0.036 µM; against JAK3 it was over 1 µM; against JAK1, 0.0036 µM; against Tyk2 it was 0.16 µM.
The like results for `N#C[C@H]1CCN(C(=O)[C@H]2CC[C@H](c3nnn4cnc5[nH]ccc5c34)CC2)C1` [compound 357, (S)-1-[trans-4-(7H-pyrrolo[3,2-e][1,2,3]triazolo[1,5-c]pyrimidin-1-yl)cyclohexanecarbonyl]pyrrolidine-3-carbonitrile] were, in that order, 0.33 µM, over 1 µM, 0.067 µM and 0.87 µM.
In the case of `O=C([C@H]1CC[C@H](c2nnn3cnc4[nH]ccc4c23)CC1)N1CC[C@H](O)C1` [compound 358, [trans-4-(7H-pyrrolo[3,2-e][1,2,3]triazolo[1,5-c]pyrimidin-1-yl)cyclohexyl][(S)-3-hydroxypyrrolidin-1-yl]methanone], the IC50 was 0.91 µM on JAK2, over 1 µM against JAK3, 0.63 µM against JAK1 and over 1 µM at Tyk2.
Regarding `O=C(NC1CC1)[C@H]1CC[C@H](c2nnn3cnc4[nH]ccc4c23)CC1` [compound 359, trans-N-cyclopropyl-4-(7H-pyrrolo[3,2-e][1,2,3]triazolo[1,5-c]pyrimidin-1-yl)cyclohexanecarboxamide], the IC50 against JAK2 is 0.22 µM; against JAK3, over 1 µM; on JAK1 it was 0.042 µM; at Tyk2 it was 0.56 µM.
The like results for `O=C(NCCO)[C@H]1CC[C@H](c2nnn3cnc4[nH]ccc4c23)CC1` [compound 360, trans-N-(2-hydroxyethyl)-4-(7H-pyrrolo[3,2-e][1,2,3]triazolo[1,5-c]pyrimidin-1-yl)cyclohexanecarboxamide] were, in that order, 0.1 µM, over 1 µM, 0.026 µM and 0.33 µM.
For `O=C([C@H]1CC[C@H](c2nnn3cnc4[nH]ccc4c23)CC1)N1CC(O)C1` [compound 361, [trans-4-(7H-pyrrolo[3,2-e][1,2,3]triazolo[1,5-c]pyrimidin-1-yl)cyclohexyl](3-hydroxyazetidin-1-yl)methanone], in that order: 0.25 µM, over 1 µM, 0.089 µM and over 1 µM.
For `N#Cc1ccc(CCNC(=O)[C@H]2CC[C@H](c3nnn4cnc5[nH]ccc5c34)CC2)cc1` [compound 362, trans-N-(4-cyanophenethyl)-4-(7H-pyrrolo[3,2-e][1,2,3]triazolo[1,5-c]pyrimidin-1-yl)cyclohexanecarboxamide], in that order: 0.057 µM, over 1 µM, 0.0074 µM and over 1 µM.
In the case of `N#CC1CN(C(=O)[C@H]2CC[C@H](c3nnn4cnc5[nH]ccc5c34)CC2)C1` [compound 363, 1-[trans-4-(7H-pyrrolo[3,2-e][1,2,3]triazolo[1,5-c]pyrimidin-1-yl)cyclohexanecarbonyl]azetidine-3-carbonitrile], the IC50 was 0.29 µM against JAK2, over 1 µM against JAK3, 0.044 µM at JAK1 and over 1 µM against Tyk2.
As to `O=S(=O)(C[C@H]1CC[C@H](c2nnn3cnc4[nH]ccc4c23)CC1)C1CC1` [compound 366, 1-{trans-4-[(cyclopropylsulfonyl)methyl]cyclohexyl}-7H-pyrrolo[3,2-e][1,2,3]triazolo[1,5-c]pyrimidine], the IC50 against JAK2 is 0.028 µM; at JAK3 it was 0.28 µM; on JAK1, 0.011 µM; against Tyk2 it was 0.26 µM.
With `IC[C@H]1CC[C@H](c2nnn3cnc4[nH]ccc4c23)CC1` [compound 367], the IC50 amounted to 0.0043 µM against JAK2, 0.054 µM at JAK3, 0.00099 µM on JAK1 and 0.0073 µM against Tyk2.
For `O=S(=O)(C[C@H]1CC[C@H](c2nnn3cnc4[nH]ccc4c23)CC1)C(F)(F)F` [compound 368, 1-(trans-4-{[(Trifluoromethyl)sulfonyl]methyl}cyclohexyl)-7H-pyrrolo[3,2-e][1,2,3]triazolo[1,5-c]pyrimidine], in that order: 0.0061 µM, 0.37 µM, 0.0013 µM and 0.03 µM.
The like results for `[N-]=[N+]=NC[C@H]1CC[C@H](c2nnn3cnc4[nH]ccc4c23)CC1` [compound 369, 1-[trans-4-(Azidomethyl)cyclohexyl]-7H-pyrrolo[3,2-e][1,2,3]triazolo[1,5-c]pyrimidine] were, in that order, 0.0017 µM, 0.048 µM, 0.00033 µM and 0.0092 µM.
The like results for `CC(C)(O)c1cn(C[C@H]2CC[C@H](c3nnn4cnc5[nH]ccc5c34)CC2)nn1` [compound 370, 2-(1-{[trans-4-(7H-Pyrrolo[3,2-e][1,2,3]triazolo[1,5-c]pyrimidin-1-yl)cyclohexyl]methyl}-1H-1,2,3-triazol-4-yl)propan-2-ol] were, in that order, 0.097 µM, 0.59 µM, 0.0074 µM and over 1 µM.
As for `NC[C@H]1CC[C@H](c2nnn3cnc4[nH]ccc4c23)CC1` [compound 371, [trans-4-(7H-Pyrrolo[3,2-e][1,2,3]triazolo[1,5-c]pyrimidin-1-yl)cyclohexyl]methanamine], the IC50 against JAK2 was found to be 0.035 µM; against JAK3, 0.39 µM; at JAK1, 0.0033 µM; on Tyk2, 0.18 µM.
